The text below walks through data of the SangsterLogP compilation.

Broadly, the logD is lipophilicity at a set pH, counting ionised and neutral species. The low end stands for lower lipophilicity, the high end for higher lipophilicity.

The series can be described thus: method code SF-AS, from Ploquin, J.; Sparfel, L.; LeBaut, G.; Floc'h, R.; Welin, L.; Petit, Y.; Henry, N. (1974). Pyrophthalones. III. Properties of gamma-pyrophthalones. Eur J Med Chem, 9(5)526-533. The note with it: pH 7.4.

Regarding `O=C1C(=C2C=CN(Cc3ccccc3)C=C2)C(=O)c2ccccc21`, the pH-dependent lipophilicity (logD) is 2.99.

For the compound `O=C1C(=C2C=CN(CC(O)CO)C=C2)C(=O)c2ccccc21` (centres undefined), the logD came out at 1.36.

In turn, `CN1C=CC(=C2C(=O)c3ccccc3C2=O)C=C1` came in with a logD of 1.6.

Take `CC=CN1C=CC(=C2C(=O)c3ccccc3C2=O)C=C1C`: the logD was determined as 2.6.

Consider `CCCCCN1C=CC(=C2C(=O)c3ccccc3C2=O)C=C1`, for which the logD worked out at 3.27.

In turn, `CC1=CC(=C2C(=O)c3ccccc3C2=O)C=CN1CC(C)C` gave a logD of 2.82.

Take `CC(O)CN1C=CC(=C2C(=O)c3ccccc3C2=O)C=C1` (centres undefined): the logD was 1.75.

The compound `CC(C)CCCCCN1C=CC(=C2C(=O)c3ccccc3C2=O)C=C1` yielded a logD of 2.98.

The compound `CC1=CC(=C2C(=O)c3ccccc3C2=O)C=CN1C(C)C` yielded a logD of 2.33.

In turn, `O=C1C(=C2C=CN(CCc3ccccc3)C=C2)C(=O)c2ccccc21` yielded a logD of 3.3.

Take `CC1=CC(=C2C(=O)c3ccccc3C2=O)C=CN1C`: the log distribution coefficient (logD) is 1.9.

Compound `C=CCN1C=CC(=C2C(=O)c3ccccc3C2=O)C=C1` had a logD of 2.46.

In turn, `CC(C)N1C=CC(=C2C(=O)c3ccccc3C2=O)C=C1` had a log distribution coefficient (logD) of 2.44.

`CCCN1C=CC(=C2C(=O)c3ccccc3C2=O)C=C1C` registered a logD of 2.63.

For `CC=CN1C=CC(=C2C(=O)c3ccccc3C2=O)C=C1`, the logD is 2.75.

On to `COCCN1C=CC(=C2C(=O)c3ccccc3C2=O)C=C1`, for which the logD was found to be 2.11.

`C=CCN1C=CC(=C2C(=O)c3ccccc3C2=O)C=C1C` gave a logD of 2.54.

The compound `CC(C)CN1C=CC(=C2C(=O)c3ccccc3C2=O)C=C1` came in with a logD of 2.76.

Compound `CCN1C=CC(=C2C(=O)c3ccccc3C2=O)C=C1` yielded a logD of 2.12.

In turn, `CCN1C=CC(=C2C(=O)c3ccccc3C2=O)C=C1C` came in with a logD of 2.34.

Take `CCCN1C=CC(=C2C(=O)c3ccccc3C2=O)C=C1`: the logD was 2.64.

Regarding `CCCCN1C=CC(=C2C(=O)c3ccccc3C2=O)C=C1`, the logD turned out to be 3.05.

In the case of `CC1=CC(=C2C(=O)c3ccccc3C2=O)C=C(C)N1C`, the logD turned out to be 2.5.

For the compound `CCCCCCCCCN1C=CC(=C2C(=O)c3ccccc3C2=O)C=C1`, the logD was determined as 3.45.
